In series [1] the test system is rat cardiomyocyte cell line H9c2. Briefly: Aggregated level of cardiomyocyte ROS (DCFH-DA, flow cytometer). The format is cell-based. Particulars: H9c2, 20 μM DOX alone, 24 h. The procedure:
A rat cardiomyocyte cell line H9c2: a DMEM culture medium (containing 10% new-born calf serum, 2 mM glutamate and 1% streptomycin/penicillin) was employed to culture, and a culture condition was an aseptic environment at 37° C. and 5% CO2. The culture medium was replaced once every 2-3 d, and when cells were cultured for 24 h and 80% were aggregated, a medicament treatment was performed. A control group, a model group (containing 20 μM DOX), and a nitraria anthocyanin extract experimental group (containing 20 μM DOX and 5-500 μg/mL nitraria anthocyanin extract) were respectively provided, and after they were treated for 24 h, 2′, 7′-dichlorodihydro-fluorescein diacetate (DCFH-DA, 20 μM) was added to incubate for 20 min at 37° C., and a flow cytometer was employed to detect an aggregated level of cardiomyocyte ROS. According to experimental results (as shown in FIG. 8), after the 20 μM DOX is treated for 24 h, the aggregated level of the cardiomyocyte ROS is increased to 3.5 times of a normal cell; and after the DOX and the 5-500 μg/mL nitraria anthocyanin extract are co-treated for 24 h, the aggregated level of the cardiomyocyte ROS only is 2.16-3.29 times of the normal cell.
A general note: A flow cytometer gives signals particle by particle.

Series [2] shares this test system. The format is cell-based. Particulars: 24 h, 20 μM. The procedure: (§1) A rat cardiomyocyte cell line H9c2: a DMEM culture medium (containing 10% new-born calf serum, 2 mM glutamate and 1% streptomycin/penicillin) was employed to culture, and a culture condition was an aseptic environment at 37° C. and 5% C02. The culture medium was replaced once every 2-3 d, and when cells were cultured for 24 h and 80% were aggregated, a medicament treatment was performed. A control group, a model group (containing 20 μM DOX), and a nitraria anthocyanin extract experimental group (containing 20 μM DOX and 5-500 μg/mL nitraria anthocyanin extract) were respectively provided, and after they were treated for 24 h, a change in cardiomyocyte apoptosis was detected by a flow cytometer according to operating instructions of a kit by employing an FITC-Annexin V/propidium iodide (PI) fluorescence double staining method.

The test system of series [3] is bcl-2, bax, caspase-3 and caspase-9 protein expression in H9c2. Briefly: Western blot of bcl-2, bax, caspase-3 and caspase-9 in H9c2. The format is cell-based, rat. To be noted: H9c2, 20 μM DOX alone, 24 h. The procedure: A rat cardiomyocyte cell line H9c2: a DMEM culture medium (containing 10% new-born calf serum, 2 mM glutamate and 1% streptomycin/penicillin) was employed to culture, and a culture condition was an aseptic environment at 37° C. and 5% CO2. The culture medium was replaced once every 2-3 d, and when cells were cultured for 24 h and 80% were aggregated, a medicament treatment was performed. A control group, a model group (containing 20 μM DOX), and a nitraria anthocyanin extract experimental group (containing 20 μM DOX and 5-500 μg/mL nitraria anthocyanin extract) were respectively provided, and after they were treated for 24 h, the cells were scrapped, and were collected by centrifugation; and after being cleaned by a phosphate buffer, the cells were resuspended in a lysis buffer. After cell debrises were removed by the centrifugation, a supernatant was collected and a soluble protein concentration was determined using a BCA protein concentration assay kit. A protein solute, after being separated by 12% SDS-PAGE electrophoresis, was transferred to a PVDF membrane and thereafter was labeled by bcl-2, bax, caspase-3 and caspase-9 antibodies. An optical density of a band was determined by Quantity One software (v4.62, American Bio-Rad Company). And αβ-tubulin was taken as a protein sample loading internal reference substance.

Series [4] relates to rat cardiomyocyte cell line H9c2. The class given is cell-based. Particulars: 24 h, 20 μM. The procedure:
as §1, with “CO2.” for “C02.”, “provided,” for “provided, and”, “an extracellular fluid was collected, and LDH and CK levels” for “a change”, “the extracellular fluid were” for “cardiomyocyte apoptosis was”, “by” for “by a flow cytometer according to operating instructions of a kit by”, “LDH and CK array kits.” for “an FITC-Annexin V/propidium iodide (PI) fluorescence double staining method.”
The source holds these as a separate data set.

Series [5] has the same test system. The format is cell-based. Particulars: 24 h, 20 μM. Here is the method: as §1, with “CO2.” for “C02.”, “aggregated, was transferred to a 96-well plate with a cell density being 1×10^5/well; after the cells were continued to culture for 24 h,” for “aggregated,”, “cell viability” for “change in cardiomyocyte apoptosis”, “by” for “by a flow cytometer according to operating instructions of a kit by employing”, “MTT” for “FITC-Annexin V/propidium iodide (PI) fluorescence double staining”
This is another data set of the same source.

For `COc1cccc2c1C(=O)c1c(O)c3c(c(O)c1C2=O)C[C@@](O)(C(=O)CO)C[C@@H]3O[C@H]1C[C@H](N)[C@H](O)[C@H](C)O1` [DOX, doxorubicin], the “aggregated level of cardiomyocyte ROS, times of a normal cell” value in series [1] was found to be 3.5 times. Further, the “number of FITC-Annexin V positive cells” value in series [2] is 1.49%. For the same compound, in series [3], the “Bax/Bcl-2 protein expression ratio versus normal cell” value is listed as “increased to two times of a normal cell”; the bax protein expression result is on record as “significantly increased”; the bcl-2 protein expression entry was “significantly reduced”; the “protein expression of cut and activated caspase-3” value is on record as “significantly increased”. In series [3], the “protein expression of cut and activated caspase-9” value is reported as “significantly increased”. Moreover, in series [4], the “CK level in the extracellular fluid, times of a normal cell” value stood at 2.87 times and the “LDH level in the extracellular fluid, times of a normal cell” value is recorded as 2.65 times. Also, in series [5], the “cell viability, of a normal cell” value worked out at 62.12%.

The record behind these values is patent publication US11110139B2, “Application of anthocyanin extract in preparing pharmaceutical composition for preventing and treating cardiac toxicity induced by anthracyclines and pharmaceutical composition” (Northwest Institute of Plateau Biology, Chinese Academy of …, priority 2017, dated 2021).
